We go through six compounds from US20020086861A1, “Fused 1,2,4- thiadiazine derivatives, their preparation and use” (priority 1998, published 2002).

Structures are written as SMILES.

Data set [1] addresses T1, KATP-channels on pancreatic beta-cells (Homo sapiens, UniProt Q09428).
T1 construct: host or cells: pancreatic beta-cells
The settings on record: by an activation of KATP-channels on pancreatic beta-cells; cited from earlier work.

The subject of data set [2] is obese Zucker rats. The settings on record: cited from earlier work.
Data set [3] relates to BB-rats. The conditions noted are these: cited from earlier work.

T1 sequence (Q09428 whole entry): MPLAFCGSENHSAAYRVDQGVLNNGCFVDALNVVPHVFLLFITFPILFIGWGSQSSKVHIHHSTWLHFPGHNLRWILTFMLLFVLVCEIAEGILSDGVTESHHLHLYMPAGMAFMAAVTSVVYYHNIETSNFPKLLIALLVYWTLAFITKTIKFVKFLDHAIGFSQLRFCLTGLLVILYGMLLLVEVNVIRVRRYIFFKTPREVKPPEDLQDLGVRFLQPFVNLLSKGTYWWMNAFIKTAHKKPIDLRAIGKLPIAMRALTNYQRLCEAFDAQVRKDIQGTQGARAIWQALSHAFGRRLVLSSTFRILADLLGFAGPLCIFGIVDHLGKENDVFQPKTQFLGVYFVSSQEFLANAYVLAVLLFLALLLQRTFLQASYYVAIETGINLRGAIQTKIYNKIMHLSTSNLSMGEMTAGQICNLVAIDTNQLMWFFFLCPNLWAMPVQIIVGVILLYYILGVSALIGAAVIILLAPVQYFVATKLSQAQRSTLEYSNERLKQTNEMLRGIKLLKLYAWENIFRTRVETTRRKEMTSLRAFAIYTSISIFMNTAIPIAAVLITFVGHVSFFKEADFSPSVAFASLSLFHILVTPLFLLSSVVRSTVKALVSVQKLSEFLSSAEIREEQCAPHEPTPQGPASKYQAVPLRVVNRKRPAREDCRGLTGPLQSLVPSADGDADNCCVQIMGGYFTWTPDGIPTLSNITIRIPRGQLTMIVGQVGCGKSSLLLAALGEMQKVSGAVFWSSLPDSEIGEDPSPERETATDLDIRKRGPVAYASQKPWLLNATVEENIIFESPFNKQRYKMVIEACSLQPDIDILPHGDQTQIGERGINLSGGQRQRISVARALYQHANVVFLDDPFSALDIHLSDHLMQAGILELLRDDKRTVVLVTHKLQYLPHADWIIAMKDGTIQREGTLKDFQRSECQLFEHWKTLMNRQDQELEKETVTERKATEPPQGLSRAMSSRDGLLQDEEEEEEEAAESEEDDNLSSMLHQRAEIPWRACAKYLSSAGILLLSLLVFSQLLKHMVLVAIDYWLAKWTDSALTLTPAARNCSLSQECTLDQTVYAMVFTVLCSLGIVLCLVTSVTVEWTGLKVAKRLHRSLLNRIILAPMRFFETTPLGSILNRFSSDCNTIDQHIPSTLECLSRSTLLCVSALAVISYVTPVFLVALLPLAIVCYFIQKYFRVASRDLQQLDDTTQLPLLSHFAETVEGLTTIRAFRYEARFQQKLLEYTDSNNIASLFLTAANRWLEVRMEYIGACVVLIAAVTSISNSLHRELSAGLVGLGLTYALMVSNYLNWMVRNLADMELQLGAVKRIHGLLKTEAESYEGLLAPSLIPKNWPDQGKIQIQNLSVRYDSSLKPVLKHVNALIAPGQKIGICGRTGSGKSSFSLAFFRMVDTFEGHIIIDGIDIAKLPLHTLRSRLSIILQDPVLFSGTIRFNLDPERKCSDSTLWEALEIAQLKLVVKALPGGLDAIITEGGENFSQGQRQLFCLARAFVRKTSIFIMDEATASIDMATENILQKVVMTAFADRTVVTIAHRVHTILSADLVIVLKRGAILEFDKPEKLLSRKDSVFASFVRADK
T1 sequence (Q14654 whole entry partner): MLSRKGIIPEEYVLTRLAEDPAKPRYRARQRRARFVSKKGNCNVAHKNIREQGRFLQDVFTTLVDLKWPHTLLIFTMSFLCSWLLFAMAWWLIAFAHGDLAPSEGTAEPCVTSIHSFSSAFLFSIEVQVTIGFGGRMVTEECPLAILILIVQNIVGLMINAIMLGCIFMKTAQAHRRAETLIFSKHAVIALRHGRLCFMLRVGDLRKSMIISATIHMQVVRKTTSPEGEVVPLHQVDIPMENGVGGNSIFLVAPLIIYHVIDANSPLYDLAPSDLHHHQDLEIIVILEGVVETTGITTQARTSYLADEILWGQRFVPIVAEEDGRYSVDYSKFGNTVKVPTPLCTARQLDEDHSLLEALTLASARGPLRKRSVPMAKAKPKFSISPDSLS

Compound `CC(C)(CO)NC1=NS(=O)(=O)c2sc(Cl)cc2N1` [Example 4, 6-Chloro-3-(2-hydroxy-1,1-dimethylethylamino)-4H-thieno[3,2-e]-1,2,4-thiadiazine 1,1-dioxide] registered a melting point of 224 to 226 °C. Same read-out and setting: to `O=S1(=O)N=C(NC23CC4CC(CC(C4)C2)C3)Nc2cc(Cl)sc21` [Example 6, 3-(1-Adamantyl)amino-6-chloro-4H-thieno[3,2-e]-1,2,4-thiadiazine 1,1-dioxide] belongs 339 to 340 °C; to `O=S1(=O)N=C(NC2(CO)CCCC2)Nc2cc(Cl)sc21` [Example 9, 6-Chloro-3-(1-hydroxymethylcyclopentyl)amino-4H-thieno[3,2-e]-1,2,4-thiadiazine 1,1-dioxide], 213 to 214 °C; to `CC(C)(NC1=NS(=O)(=O)c2sc(Cl)cc2N1)c1ccccc1` [Example 10, 6-Chloro-3-(1-methyl-1-phenylethyl)amino-4H-thieno[3,2-e]-1,2,4-thiadiazine 1,1-dioxide], ~ 360 °C (dec.). `CC1(NC2=NS(=O)(=O)c3sc(Cl)cc3N2)CCC1` [Example 13, 6-Chloro-3-(1-methylcyclobutyl)amino-4H-thieno[3,2-e]-1,2,4-thiadiazine 1,1-dioxide] came in with a melting point of 294 to 296 °C. `CC1=Nc2ccc(Cl)cc2S(=O)(=O)N1` [diazoxide, 7-chloro-3-methyl-2H-1,2,4-benzothiadiazine 1,1-dioxide]: in data set [1], the insulin release result is “inhibit insulin release”. For the same compound, in data set [2], the glucose tolerance result was “improve glucose tolerance”, the insulin receptor binding entry is “increase insulin receptor binding”, the insulin secretion entry is on record as “decrease insulin secretion” and the weight gain result is “decrease weight gain”. Moreover, the onset of diabetes entry in data set [3] was “delay the onset of diabetes”.

Broadly, the melting point is the temperature, or range, at which the solid turns liquid.
